Series [1] relates to patients with pre-existing gas exchange problems. Description: Ventilation-perfusion matching by multiple inert gas elimination technique (MIGET). The following applies: during NO-inhalation (20 ppm); mean±95% confidence interval; n=5. The procedure: The impact of SMI-TRE on ventilation-perfusion matching was assessed in five patients (30 μg TRE, n=2; 45 μg TRE, n=1; 60 μg TRE, n=2) with pre-existing gas exchange problems by use of the multiple inert gas elimination technique (MIGET), see e.g. Wagner PD, Saltzman HA, West JB. Measurement of continuous distributions of ventilation-perfusion ratios: theory. J Appl Physiol. 1974; 36:588-99; Ghofrani HA, Wiedemann R, Rose F, Schermuly RT, Olschewski H, Weissmann N et al. Sildenafil for treatment of lung fibrosis and pulmonary hypertension: a randomised controlled trial. Lancet. 2002; 360:895-900, both incorporated herein in their entirety.
The inhalation of a highly concentrated aerosol can be in theory prone to disturbances of gas exchange because the deposition of even small amounts of aerosol may deliver high doses locally and thereby antagonize the hypoxic pulmonary vasoconstriction in poorly ventilated areas. This would then lead to increased shunt flow or increase of low ventilation/perfusion (V/Q) areas. This question was addressed in five patients with the multiple inert gas elimination technique (MIGET), the gold-standard for intrapulmonary V/Q ratio determination. The MIGET patients were selected for pre-existing gas exchange limitations. […] Etiologies were iPAH (n=1), CTEPH (n=3), pulmonary fibrosis (n=1).

Series [2] relates to patients with moderate to severe precapillary pulmonary hypertension. Description: Study i) randomized crossover study of inhaled treprostinil vs inhaled iloprost, right heart catheter. Type of series: in vivo, human. Here is the method: All inhalations were performed with the […]® ultrasonic nebulizer ([…], Germany). Study i) was a randomized, open-label, single-blind crossover study. […] Patient characteristics and hemodynamic as well as gas exchange parameters are outlined in Table 3. Each patient inhaled both iloprost and treprostinil on the same day during right heart catheter investigation; the drugs were administered consecutively with a one hour interval between the drug applications. One half of the study patients initially inhaled treprostinil and then inhaled iloprost (n=22), while the other half initially inhaled iloprost and then inhaled treprostinil (n=22). Patients were randomized to one of the two groups and blinded as to the study drugs. Drug effects were monitored for 60 minutes after each inhalation.

`[N]=O` [NO, nitric oxide]: the shunt flow in series [1] is 5.4±3.0%.
On to `CC#CCC(C)[C@H](O)/C=C/[C@@H]1[C@H]2C/C(=C/CCCC(=O)O)C[C@H]2C[C@H]1O` (stereo partly shown) [iloprost], for which the “area under the curve (AUC) of PVR decrease” value in series [2] (7.5 μg inhaled in 6 minutes, start of inhalation until 60 min, mean±95% confidence interval) amounted to 7.7±3.7%. Moreover, in series [2] (after inhalation), the gas exchange result was “did not affect gas exchange” and the “systemic arterial pressure (SAP)” value is listed as “transient decrease”. For the same compound, the “side effects (transient flush, headache)” value in series [2] (iloprost 7.5 μg, treprostinil 7.5-15 μg) was “occasionally observed mild side effects”. The “maximum effect on PVR” value in series [2] (iloprost vs treprostinil, pooled) is on record as “comparable”. In addition, the “time to maximum effect on PVR after inhalation” value in series [2] (pooled n=44, mean±SEM, p<0.0001) was found to be 8 ± 1 min.
